Laboratory results: patent publication US20130149362A1, “TREATMENT PRODUCT AND METHOD” (priority 2007, published 2013)

Assay: penetration of retinal into the skin (topical application)
Details: retinal by itself

SMILES: CC1=C(/C=C/C(C)=C/C=C/C(C)=C/C=O)C(C)(C)CCC1 [Retinal]
- penetration rate: about 2%
